Results from patent US12583854B2, “KRAS G12C inhibitors and methods of using the same” (Amgen Inc., priority 2018, dated 2026).
Where a name gives a salt, the structure may show the parent alone. Read-outs that look alike come from different tables or passages of the source.

Tests used:
[1] = molecular target: GDP-bound KRAS protein (aa 1-169), containing both G12C and C118A amino acid substitutions (Homo sapiens, UniProt P01116, C118A/G12C); experiment: Coupled Nucleotide Exchange Assay; format: biochemical; conditions: 5 min compound pre-incubation; SOS-mediated nucleotide exchange, AlphaScreen
GDP-bound KRAS protein (aa 1-169), containing both G12C and C118A amino acid substitutions, sequence (P01116 1-169 isoform P01116-2 G12C/C118A): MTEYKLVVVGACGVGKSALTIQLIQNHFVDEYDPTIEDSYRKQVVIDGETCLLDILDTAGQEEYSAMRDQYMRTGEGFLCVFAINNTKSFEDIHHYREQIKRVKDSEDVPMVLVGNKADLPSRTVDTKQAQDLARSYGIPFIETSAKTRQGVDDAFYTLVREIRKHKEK
Method: Following compound pre-incubation, purified SOS protein (aa 564-1049) and GTP (Roche 10106399001) were added to the assay wells and incubated for an additional 30 min. To determine the extent of inhibition of SOS-mediated nucleotide exchange, purified GST-tagged cRAF (aa 1-149), nickel chelate AlphaLISA acceptor beads (PerkinElmer AL108R), and AlphaScreen glutathione donor beads (PerkinElmer 6765302) were added to the assay wells and incubated for 10 minutes. The assay plates were then read on a PerkinElmer EnVision Multilabel Reader, using AlphaScreen® technology, and data were analyzed using a 4-parameter logistic model to calculate IC50 values.

[2] = system: Phosphorylation of ERK1/2 in MIA PaCa-2 cells; experiment: Phospho-ERK1/2 MSD Assay; format: cell-based; conditions: EGF stimulation 10 ng/mL, 10 min, read-out: p-ERK IC50 (2 h)
Method: Phospho-ERK1/2 MSD Assay: MIA PaCa-2 (ATCC® CRL-1420™) and A549 (ATCC® CCL-185™) cells were cultured in RPMI 1640 Medium (ThermoFisher Scientific 11875093) containing 10% fetal bovine serum (ThermoFisher Scientific 16000044) and 1× penicillin-streptomycin-glutamine (ThermoFisher Scientific 10378016). Sixteen hours prior to compound treatment, MIA PaCa-2 were seeded in 96-well cell culture plates at a density of 25,000 cells/well and incubated at 37° C., 5% CO2. A compound dose-response titration was diluted in growth media, added to appropriate wells of a cell culture plate, and then incubated at 37° C., 5% CO2 for 2 (see Table 10). Following compound treatment, cells were stimulated with 10 ng/mL EGF (Roche 11376454001) for 10 min, washed with ice-cold Dulbecco's phosphate-buffered saline, no Ca^2+ or Mg^2+ (ThermoFisher Scientific 14190144), and then lysed in RIPA buffer (50 mM Tris-HCl pH 7.5, 1% Igepal, 0.5% sodium deoxycholate, 150 mM NaCl, and 0.5% sodium dodecyl sulfate) containing protease inhibitors (Roche 4693132001) and phosphatase inhibitors (Roche 4906837001). Phosphorylation of ERK1/2 in compound-treated lysates was assayed using Phospho-ERK1/2 Whole Cell Lysate kits (Meso Scale Discovery K151DWD) according to the manufacturer's protocol. Assay plates were read on a Meso Scale Discovery Sector Imager 6000, and data were analyzed using a 4-parameter logistic model to calculate IC50 values.

[3] = Homo sapiens, MIA PaCa-2, 2 h compound treatment

SMILES	Coupled exchange IC50 (5 min; μM) [1] [µM]	IC50 ([2]; 2 h compound treatment) [nM]	IC50 [2, 3] [nM]
C=CC(=O)N1CCN(c2c(C#N)c(=O)n(-c3c(C)ccnc3C(C)C)c3nc(-c4ccccc4F)c(Cl)cc23)CC1 [Example 6.5, 4-(4-acryloylpiperazin-1-yl)-6-chloro-7-(2-fluorophenyl)-1-(2-isopropyl-4-methylpyridin-3-yl)-2-oxo-1,2-dihydro-1,8-naphthyridine-3-carbonitrile]	0.10	60	–
C=CC(=O)N1CCN(c2c(C#N)c(=O)n(-c3c(C)ccnc3C(C)C)c3nc(-c4ccccc4F)c(Cl)cc23)C[C@H]1C (single isomer, unassigned) [Example 6.7]	0.20	–	150
C=CC(=O)N1CCN(c2c(C#N)c(=O)n(-c3c(C(C)C)ccnc3C(C)C)c3nc(-c4ccccc4F)c(Cl)cc23)CC1 (single isomer, unassigned) [Example 8.2, 4-(4-acryloylpiperazin-1-yl)-6-chloro-1-(2,4-diisopropylpyridin-3-yl)-7-(2-fluorophenyl)-2-oxo-1,2-dihydro-1,8-naphthyridine-3-carbonitrile]	0.12	160	–
C=CC(=O)N1CCN(c2c(C#N)c(=O)n(-c3c(C)ccnc3C(C)C)c3nc(-c4ccccc4C)c(Cl)cc23)CC1 (single isomer, unassigned) [Example 11.1, 4-(4-acryloylpiperazin-1-yl)-6-chloro-1-(2-isopropyl-4-methylpyridin-3-yl)-2-oxo-7-(o-tolyl)-1,2-dihydro-1,8-naphthyridine-3-carbonitrile]	0.15	–	120
C=CC(=O)N1CCN(c2c(C#N)c(=O)n(-c3c(C(C)C)ccnc3C(C)C)c3nc(-c4ccccc4C)c(Cl)cc23)CC1 (single isomer, unassigned) [Example 7, 4-(4-Acryloylpiperazin-1-yl)-6-chloro-1-(2,4-diisopropylpyridin-3-yl)-2-oxo-7-(o-tolyl)-1,2-dihydro-1,8-naphthyridine-3-carbonitrile]	0.15	–	220
C=CC(=O)N1CCN(c2c(C#N)c(=O)n(-c3c(C(C)C)ncnc3C(C)C)c3nc(-c4c(N)cccc4F)c(Cl)cc23)CC1 [Example 11.4, 4-(4-acryloylpiperazin-1-yl)-7-(2-amino-6-fluorophenyl)-6-chloro-1-(4,6-diisopropylpyrimidin-5-yl)-2-oxo-1,2-dihydro-1,8-naphthyridine-3-carbonitrile]	0.13	–	90
C=CC(=O)N1CCN(c2c(C#N)c(=O)n(-c3c(C(C)C)ccnc3N(C)C)c3nc(-c4ccccc4F)c(Cl)cc23)CC1 (single isomer, unassigned) [Example 8.8, 4-(4-acryloylpiperazin-1-yl)-6-chloro-1-(2-(dimethylamino)-4-isopropylpyridin-3-yl)-7-(2-fluorophenyl)-2-oxo-1,2-dihydro-1,8-naphthyridine-3-carbonitrile]	0.09	50	–
CNC/C=C/C(=O)N1CCN(c2c(C#N)c(=O)n(-c3c(C(C)C)ncnc3C(C)C)c3nc(-c4ccccc4F)c(Cl)cc23)CC1 [Example 4, (E)-6-Chloro-1-(4,6-diisopropylpyrimidin-5-yl)-7-(2-fluorophenyl)-4-(4-(4-(methylamino)but-2-enoyl)piperazin-1-yl)-2-oxo-1,2-dihydro-1,8-naphthyridine-3-carbonitrile trifluoroacetate salt]	0.34	–	300
C=CC(=O)N1CCN(c2c(C#N)c(=O)n(-c3c(C(C)C)ccnc3C(C)C)c3nc(-c4ccccc4F)c(Cl)cc23)CC1 (single isomer, unassigned) [Example 8.1, 4-(4-acryloylpiperazin-1-yl)-6-chloro-1-(2,4-diisopropylpyridin-3-yl)-7-(2-fluorophenyl)-2-oxo-1,2-dihydro-1,8-naphthyridine-3-carbonitrile]	0.07	–	320
C=CC(=O)N1[C@H](C)CN(c2c(C#N)c(=O)n(-c3c(C)ccnc3C(C)C)c3nc(-c4ccccc4F)c(Cl)cc23)C[C@@H]1C [Example 7.3, 4-((3R,5S)-4-acryloyl-3,5-dimethylpiperazin-1-yl)-6-chloro-7-(2-fluorophenyl)-1-(2-isopropyl-4-methylpyridin-3-yl)-2-oxo-1,2-dihydro-1,8-naphthyridine-3-carbonitrile]	0.18	–	260
C=CC(=O)N1CCN(c2c(C#N)c(=O)n(-c3c(C(C)C)ccnc3N(C)C)c3nc(-c4ccccc4F)c(Cl)cc23)CC1 (single isomer, unassigned) [Example 8.4, 4-(4-acryloylpiperazin-1-yl)-6-chloro-1-(2-(dimethylamino)-4-isopropylpyridin-3-yl)-7-(2-fluorophenyl)-2-oxo-1,2-dihydro-1,8-naphthyridine-3-carbonitrile]	0.24	240	–
C=CC(=O)N1[C@H](C)CN(c2c(C#N)c(=O)n(-c3c(C)ccnc3C(C)C)c3nc(-c4ccccc4F)c(Cl)cc23)C[C@@H]1C (single isomer, unassigned) [Example 7.7]	0.18	–	260
CC(C)c1ncnc(C(C)C)c1-n1c(=O)c(C#N)c(N2CCN(C(=O)/C=C/C3CCCN3C)CC2)c2cc(Cl)c(-c3ccccc3F)nc21 (stereo not drawn) [Example 3.2]	0.71	–	1260
C=CC(=O)N1CCN(c2c(C#N)c(=O)n(-c3c(C(C)C)ncnc3C(C)C)c3nc(-c4ccccc4F)c(Cl)cc23)CC1 [Example 6.3, 4-(4-acryloylpiperazin-1-yl)-6-chloro-1-(4,6-diisopropylpyrimidin-5-yl)-7-(2-fluorophenyl)-2-oxo-1,2-dihydro-1,8-naphthyridine-3-carbonitrile]	0.07	–	40
CC(C)c1ncnc(C(C)C)c1-n1c(=O)c(C#N)c(N2CCN(C(=O)/C=C/CN3CCCCC3)CC2)c2cc(Cl)c(-c3ccccc3F)nc21 [Example 3.1]	1.02	–	4470
C=CC(=O)N1CCN(c2c(C#N)c(=O)n(-c3c(C(C)C)ccnc3C(C)C)c3nc(-c4ccccc4C)c(Cl)cc23)CC1 (single isomer, unassigned) [Example 7.1, 4-(4-acryloylpiperazin-1-yl)-6-chloro-1-(2,4-diisopropylpyridin-3-yl)-2-oxo-7-(o-tolyl)-1,2-dihydro-1,8-naphthyridine-3-carbonitrile]	–	140	–
C=CC(=O)N1CCN(c2c(C#N)c(=O)n(-c3c(C(C)C)ccnc3C(C)C)c3nc(Cl)c(F)cc23)CC1 [Example 9, 4-(4-Acryloylpiperazin-1-yl)-7-chloro-1-(2,4-diisopropylpyridin-3-yl)-6-fluoro-2-oxo-1,2-dihydro-1,8-naphthyridine-3-carbonitrile]	82.1	–	–
C=CC(=O)N1CCN(c2c(C#N)c(=O)n(-c3c(CN(C)C)ccnc3C(C)C)c3nc(-c4ccccc4F)c(Cl)cc23)CC1 [Example 2.2, 4-(4-acryloylpiperazin-1-yl)-6-chloro-1-(4-((dimethylamino)methyl)-2-isopropylpyridin-3-yl)-7-(2-fluorophenyl)-2-oxo-1,2-dihydro-1,8-naphthyridine-3-carbonitrile]	5.71	–	–
C=CC(=O)N1CCN(c2c(C#N)c(=O)n(-c3c(C)ccnc3C(C)C)c3nc(-c4ccccc4C)c(Cl)cc23)CC1 (single isomer, unassigned) [Example 11, 4-(4-Acryloylpiperazin-1-yl)-6-chloro-1-(2-isopropyl-4-methylpyridin-3-yl)-2-oxo-7-(o-tolyl)-1,2-dihydro-1,8-naphthyridine-3-carbonitrile]	0.71	–	–
C=CC(=O)N1CCN(c2c(C#N)c(=O)n(-c3c(C(C)C)ccnc3C(C)C)c3nc(-c4ccccc4C)c(F)cc23)CC1 [Example 10.3, 4-(4-acryloylpiperazin-1-yl)-1-(2,4-diisopropylpyridin-3-yl)-6-fluoro-2-oxo-7-(o-tolyl)-1,2-dihydro-1,8-naphthyridine-3-carbonitrile]	0.83	–	–
C=CC(=O)N1C[C@H](C)N(c2c(C#N)c(=O)n(-c3c(C)ccnc3C(C)C)c3nc(-c4ccccc4F)c(Cl)cc23)C[C@H]1C (single isomer, unassigned) [Example 7.5]	2.27	–	–
